US9757327B2, “Abutilon indicum extracts and methods of use” (Avon Products, Inc., priority 2013, dated 2017)

System: dorsal forearm skin of healthy female Caucasian subjects
Experiment: In vivo biopsy (histology after 3 week patch treatment)
Set-up: species or system human
Details: 3 weeks semi-occlusion patch, 2 mg/cm^2, extract 0.33% active, retinol 0.05% active
Protocol: Healthy female Caucasian subjects aged 30-65, with skin type II or III and mild to moderate photo damage, were treated on the dorsal forearm for 3 weeks (3 consecutive rounds of 5×24 hour) under semi-occlusion patches. Test articles including active ingredients, vehicle controls, and retinol were applied in a randomized allocation on 6 sites on each forearm. The application dose was 2 mg/cm^2. After 3 week treatment, a 2 mm punch biopsy was obtained from each treatment site and fixed in 10% buffered formalin. Tissue samples then embedded in paraffin, sectioned (5 μm thickness), and stained for skin markers after re-hydration. […] Retinol at a active concentration of 0.05% was used as a positive control. Retinol use at a 0.05% active concentration in the semi-occlusion patch vehicle formulation yielded a visual score of approximately 0.56 out of a 4 point scale in HE staining (measuring hematoxylin and eosin staining, an indication of viable epidermal thickness and health) with 63.6% of the subjects showing an improvement; a visual score of 0.6 out of a 4 point scale in M-TC staining (Masson's trichrome staining, assessing total mature fiber-forming collagen in the dermis—mainly Collagen I, […] and Collagen V) with 51.6% of the subjects showing an improvement; a visual score of 0.52 out of a 4 point scale for pro-Col (measuring new synthesis of Collagen I by skin fibroblasts in the dermis) with 51.6% of the subjects showing an improvement; and a visual score of 0.57 out of a 4 point scale for HA (measuring level of hyaluronic acid in both dermis and epidermis) with 50% of the subjects showing an improvement.

`CC1=C(/C=C/C(C)=C/C=C/C(C)=C/CO)C(C)(C)CCC1` [Retinol] was tested, and the “subjects showing an improvement, HA” value was 50 % of the subjects, the “subjects showing an improvement, HE staining” value was 63.6 % of the subjects and the “subjects showing an improvement, M-TC staining” value was 51.6 % of the subjects. For the same compound, the “subjects showing an improvement, pro-Col” value was 51.6 % of the subjects, the “visual score for HA (hyaluronic acid in dermis and epidermis)” value (out of a 4 point scale) was 0.57 and the “visual score for pro-Col (new synthesis of Collagen I)” value (out of a 4 point scale) was 0.52. For the same compound, the “visual score in HE staining (viable epidermal thickness and health)” value (out of a 4 point scale) was “approximately 0.56” and the “visual score in M-TC staining (total mature fiber-forming collagen in the dermis)” value (out of a 4 point scale) was 0.6.
